Results from the supplement of paper PMC8149375.

Legend:
Details in all cases: treatment: drug + dasatinib (fixed dose, not stated); 5 days
TK-10 [1] = test: minimum viability across doses, drug + dasatinib, relative to DMSO (fraction); higher = less growth inhibition
Procedure: (§1)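 Primary HTS combination arm: 8 RCC cell lines treated with 8 doses (up to 10 uM) of each library drug plus a fixed dose of dasatinib (dose not stated) for 5 days; viability read by CellTiter-Glo and normalised to DMSO. GI50 was fitted with XLfit, AUC is the area under the dose-response curve, and minimum viability is the lowest fraction of DMSO viability across doses.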

CAKI-1 [2] = test: as above
Procedure: as §1

786-O [3] = test: as above
Procedure: as §1

ACHN [4] = test: as above
Procedure: as §1

A498 [5] = test: as above
Procedure: as §1

SN12C [6] = test: as above
Procedure: as §1

769-P [7] = test: as above
Procedure: as §1

UO-31 [8] = test: as above
Procedure: as §1

TK-10 [9] = test: GI50 of drug in presence of dasatinib; higher = less potent
Procedure: as §1

CAKI-1 [10] = test: as above
Procedure: as §1

786-O [11] = test: as above
Procedure: as §1

ACHN [12] = test: as above
Procedure: as §1

A498 [13] = test: as above
Procedure: as §1

SN12C [14] = test: as above
Procedure: as §1

769-P [15] = test: as above
Procedure: as §1

UO-31 [16] = test: as above
Procedure: as §1

TK-10 [17] = test: AUC of dose-response viability curve, drug + dasatinib, normalised to DMSO (arbitrary (AUC of normalised viability)); higher = less growth inhibition
Procedure: as §1

CAKI-1 [18] = test: as above
Procedure: as §1

786-O [19] = test: as above
Procedure: as §1

ACHN [20] = test: as above
Procedure: as §1

A498 [21] = test: as above
Procedure: as §1

SN12C [22] = test: as above
Procedure: as §1

769-P [23] = test: as above
Procedure: as §1

UO-31 [24] = test: as above
Procedure: as §1

Row | SMILES | minimum viability across doses (TK-10 [1]) | minimum viability across doses (CAKI-1 [2]) | minimum viability across doses (786-O [3]) | minimum viability across doses (ACHN [4]) | minimum viability across doses (A498 [5]) | minimum viability across doses (SN12C [6]) | minimum viability across doses (769-P [7]) | minimum viability across doses (UO-31 [8]) | GI50 of drug (TK-10 [9]) [nM] | GI50 of drug (CAKI-1 [10]) [nM] | GI50 of drug (786-O [11]) [nM] | GI50 of drug (ACHN [12]) [nM] | GI50 of drug (A498 [13]) [nM] | GI50 of drug (SN12C [14]) [nM] | GI50 of drug (769-P [15]) [nM] | GI50 of drug (UO-31 [16]) [nM] | AUC of dose-response viability curve (TK-10 [17]) | AUC of dose-response viability curve (CAKI-1 [18]) | AUC of dose-response viability curve (786-O [19]) | AUC of dose-response viability curve (ACHN [20]) | AUC of dose-response viability curve (A498 [21]) | AUC of dose-response viability curve (SN12C [22]) | AUC of dose-response viability curve (769-P [23]) | AUC of dose-response viability curve (UO-31 [24])
1 | CN[C@@H]1C[C@H]2O[C@@](C)([C@@H]1OC)n1c3ccccc3c3c4c(c5c6ccccc6n2c5c31)C(=O)NC4 [Staurosporine] + Cc1nc(Nc2ncc(C(=O)Nc3c(C)cccc3Cl)s2)cc(N2CCN(CCO)CC2)n1 [dasatinib] | 0.0201 | 0.00221 | 0.00375 | 0.00268 | 0.0115 | 0.00331 | 0.0048 | 0.0095 | < 3 | < 3 | < 3 | 3.6 | 32.3 | 10.4 | < 3 | < 3 | 0.303 | 0.0603 | 0.109 | 0.372 | 1.07 | 0.755 | 0.201 | 0.0461
2 | Nc1ccc(C(=O)Nc2cccc(-c3nc(N4CCOCC4)c4oc5ncccc5c4n3)c2)cn1 + Cc1nc(Nc2ncc(C(=O)Nc3c(C)cccc3Cl)s2)cc(N2CCN(CCO)CC2)n1 [dasatinib] | 0.0664 | 0.0783 | 0.00383 | 0.152 | 0.283 | 0.345 | 0.0371 | 0.0122 | 973 | 256 | 476 | 361 | 6740 | 2590 | 850 | 1510 | 2.16 | 1.61 | 1.81 | 1.68 | 3.03 | 2.16 | 1.99 | 3.17
3 | C=CC(=O)Nc1cc2c(Nc3ccc(F)c(Cl)c3)ncnc2cc1OCCCN1CCOCC1 [CI-1033 (Canertinib)] + Cc1nc(Nc2ncc(C(=O)Nc3c(C)cccc3Cl)s2)cc(N2CCN(CCO)CC2)n1 [dasatinib] | 0.133 | 0.0894 | 0.372 | 0.11 | 0.0275 | 0.295 | 0.185 | 0.00946 | 283 | 739 | 1340 | 14.1 | 4070 | 969 | 46.4 | 1330 | 1.79 | 1.84 | 2.11 | 1.31 | 2.74 | 2.13 | 1.46 | 2.4
4 | O=C1NC(=O)[C@@H](c2cn3c4c(cccc24)CCC3)[C@@H]1c1c[nH]c2ccccc12 [ARQ 197 (Tivantinib)] + Cc1nc(Nc2ncc(C(=O)Nc3c(C)cccc3Cl)s2)cc(N2CCN(CCO)CC2)n1 [dasatinib] | 0.298 | 0.0929 | 0.00404 | 0.147 | 0.133 | 0.181 | 0.0843 | 0.03 | 1460 | 178 | 191 | 367 | 974 | 1870 | 509 | 1980 | 2.11 | 1.56 | 1.42 | 1.73 | 2.42 | 2.01 | 1.87 | 2.97
5 | CNC(=O)Nc1ccc(-c2nc(N3CC4CCC(C3)O4)c3cnn(C4CCC5(CC4)OCCO5)c3n2)cc1 + Cc1nc(Nc2ncc(C(=O)Nc3c(C)cccc3Cl)s2)cc(N2CCN(CCO)CC2)n1 [dasatinib] | 0.0572 | 0.0306 | 0.00307 | 0.0427 | 0.0731 | 0.116 | 0.0698 | 0.00565 | 32.5 | 16.7 | 10.7 | 9.64 | 121 | 32.3 | 36.6 | 38.8 | 1.19 | 0.907 | 0.872 | 0.872 | 1.64 | 1.24 | 1.16 | 1.2
6 | COC(=O)c1ccc2c(c1)NC(=O)/C2=C(\Nc1ccc(N(C)C(=O)CN2CCN(C)CC2)cc1)c1ccccc1 [BIBF1120 (Vargatef)] + Cc1nc(Nc2ncc(C(=O)Nc3c(C)cccc3Cl)s2)cc(N2CCN(CCO)CC2)n1 [dasatinib] | 0.637 | 0.125 | 0.694 | 0.23 | 0.664 | 0.412 | 0.656 | 0.128 | > 10000 | 430 | > 10000 | 147 | > 10000 | 2620 | > 10000 | 1730 | 2.88 | 1.77 | 2.98 | 1.73 | 3.35 | 2.3 | 2.47 | 2.64
7 | Cc1cc(Nc2cc(CN3CCOCC3)c3nc(C)c(Cc4ccc(Cl)cc4F)n3n2)[nH]n1 + Cc1nc(Nc2ncc(C(=O)Nc3c(C)cccc3Cl)s2)cc(N2CCN(CCO)CC2)n1 [dasatinib] | 0.0211 | 0.00448 | 0.00749 | 0.0702 | 0.194 | 0.105 | 0.0393 | 0.0199 | 1950 | 410 | 262 | 436 | 4200 | 1340 | 1620 | 2610 | 2.43 | 1.73 | 1.65 | 1.75 | 3.43 | 2.1 | 2.24 | 3.83
8 | CN1CCN(c2ccc3nc(-c4c(N)c5c(F)cccc5[nH]c4=O)[nH]c3c2)CC1 [Dovitinib (TKI-258)] + Cc1nc(Nc2ncc(C(=O)Nc3c(C)cccc3Cl)s2)cc(N2CCN(CCO)CC2)n1 [dasatinib] | 0.277 | 0.0724 | 0.263 | 0.14 | 0.239 | 0.0733 | 0.0592 | 0.0928 | 1890 | 148 | 4070 | 44.8 | 2330 | 266 | 1410 | 697 | 2.33 | 1.5 | 2.58 | 1.38 | 2.49 | 1.6 | 2.06 | 2.36
9 | CN(C)c1ccc(-c2nc3c(N4CCN(CC(=O)Nc5nccs5)CC4)c(Cl)cnc3[nH]2)cc1 + Cc1nc(Nc2ncc(C(=O)Nc3c(C)cccc3Cl)s2)cc(N2CCN(CCO)CC2)n1 [dasatinib] | 0.487 | 0.0775 | 0.26 | 0.145 | 0.281 | 0.2 | 0.307 | 0.107 | 4030 | 334 | 953 | 162 | 3350 | 976 | 1950 | 2840 | 2.34 | 1.69 | 1.91 | 1.53 | 2.88 | 2.03 | 2.19 | 3.26
10 | C[C@@H]1COC(Nc2ccc3ncnc(Nc4ccc(OCc5nccs5)c(Cl)c4)c3c2)=N1 + Cc1nc(Nc2ncc(C(=O)Nc3c(C)cccc3Cl)s2)cc(N2CCN(CCO)CC2)n1 [dasatinib] | 0.318 | 0.318 | 0.49 | 0.286 | 0.988 | 0.638 | 0.18 | 0.679 | 614 | 3550 | > 10000 | 96.4 | > 10000 | > 10000 | 267 | > 10000 | 2.03 | 2.16 | 2.05 | 1.62 | 4.08 | 2.36 | 1.87 | 3.53
11 | COCCOc1ccc2c(c1)ncn2-c1ccc2cccc(N3CCC(N)CC3)c2n1 + Cc1nc(Nc2ncc(C(=O)Nc3c(C)cccc3Cl)s2)cc(N2CCN(CCO)CC2)n1 [dasatinib] | 0.261 | 0.2 | 0.00646 | 0.0189 | 0.0463 | 0.041 | 0.123 | 0.0088 | 1810 | 471 | 683 | 85.4 | 3200 | 1690 | 1880 | 2910 | 2.2 | 1.85 | 1.86 | 1.73 | 2.84 | 2.36 | 2.23 | 3.4
12 | CCc1cc(Nc2nccc(-c3c(-c4ccc(OC)c(C(=O)Nc5c(F)cccc5F)c4)nc4ccccn34)n2)c(OC)cc1N1CCC(N2CCN(S(C)(=O)=O)CC2)CC1 + Cc1nc(Nc2ncc(C(=O)Nc3c(C)cccc3Cl)s2)cc(N2CCN(CCO)CC2)n1 [dasatinib] | 0.678 | 0.406 | 0.641 | 0.488 | 0.849 | 0.644 | 0.445 | 0.86 | > 10000 | 3060 | > 10000 | > 10000 | > 10000 | > 10000 | 3100 | > 10000 | 2.59 | 2.19 | 2.71 | 1.97 | 3.42 | 2.4 | 2.19 | 3.28
13 | CN1CCN(c2cccc(Nc3nc4c(-c5ccc(S(C)(=O)=O)cc5)cccn4n3)c2)CC1 + Cc1nc(Nc2ncc(C(=O)Nc3c(C)cccc3Cl)s2)cc(N2CCN(CCO)CC2)n1 [dasatinib] | 0.174 | 0.0803 | 0.443 | 0.0965 | 1.02 | 0.246 | 0.293 | 0.0195 | 1250 | 704 | 5280 | 3.78 | > 10000 | > 10000 | 4170 | 3160 | 2.12 | 1.84 | 2.21 | 1.23 | 3.99 | 2.37 | 2.27 | 3.59
14 | Cc1nc(Nc2ncc(C(=O)Nc3c(C)cccc3Cl)s2)cc(N2CCN(CCO)CC2)n1 + Cc1nc(Nc2ncc(C(=O)Nc3c(C)cccc3Cl)s2)cc(N2CCN(CCO)CC2)n1 [dasatinib] | 0.0619 | 0.0256 | 0.0726 | 0.0702 | 0.413 | 0.422 | 0.0465 | 0.0492 | 18.8 | 23.6 | 158 | 26.3 | 8460 | 2300 | 38.2 | 65.6 | 1.04 | 1.03 | 1.71 | 1.18 | 2.62 | 2.21 | 1.22 | 1.44
